Test results: patent US20240245741A1, “EXTRACTION METHOD USING AN AQUEOUS ALKANEDIOL” (Minasolve SAS, priority 2021, published 2024)
In brackets after ≈: the same amount, converted by molar mass. Where two headings read alike, the source gives them in different places.

Columns and labels:
physchem = conditions: for solubility at 5 min: thermodynamic from solid
Description: All experiments were performed at ambient temperature. Each model substance was weighted into test tubes, and a precise volume of each solvent mixture was added in order to obtain saturated solutions. The test tubes were vortexed for 5 min and subsequently centrifuged (12000 rpm during 15 min at 25° C.). An aliquot of the supernatant was diluted for UV-spectrophotometric assay. Absorbance measurements were made at wavelengths adapted to each studied molecule. High Performance Liquid Chromatography (HPLC-DAD) was used for Rosmarinic Acid (RA) quantification. Determination of Radical Scavenging Capacity was conducted through DPPH assay.
Each experiment was performed in triplicate.
The solubilisation power of aqueous Pentylene Glycol solutions (from 0 to 100% of PG) for five different model substances was compared to that of 80 wt. % aqueous ethanol.
Various mixtures of bio-based PG and bio-based caprylyl glycol (CG) were explored for dissolving hesperidin. The proportion of bio-based caprylyl glycol ranged from 0 to 30%.
Regarding solubility in the ternary mixture of PG/CG/water, six different mixtures out of the monophasic region of the ternary system were prepared (see FIG. 2): Three water-rich solvent mixtures, one with a high percentage of PG, one with a high percentage of CG and one with a similar percentage of all three components. All the alkanediols used in this study were bio-based or “green”.

[1] = Ternary phase diagrams PG/water/lipophilic ingredient (monophasic region); conditions: with 85% PG, 10% water
[2] = 25 °C, organic solvent or mixture
[3] = aqueous with cosolvent or surfactant or cyclodextrin

COc1ccc([C@@H]2CC(=O)c3c(O)cc(O[C@@H]4O[C@H](CO[C@@H]5O[C@@H](C)[C@H](O)[C@@H](O)[C@H]5O)[C@@H](O)[C@H](O)[C@H]4O)cc3O2)cc1O [HE, Hesperidin]
Solubilisation power relative to 80% ethanol (physchem; 5% CG in PG versus 80% ethanol): 82.4% | Solubility compared to PG alone (physchem; 5% CG in PG versus PG alone): 5 times | Solubility (physchem; (PG:CG) solution, 1% CG): 0.078 ± 0.005 g/litre of solvent | Solubility (physchem; (PG:CG) solution, 5% CG): 0.11 ± 0.006 g/litre of solvent | Solubility (physchem; (PG:CG) solution, 10% CG): 0.071 ± 0.003 g/litre of solvent | Solubility (physchem; (PG:CG) solution, 20% CG): 0.071 ± 0.007 g/litre of solvent | Solubility (physchem; (PG:CG) solution, 30% CG): 0.06 ± 0.01 g/litre of solvent | Solubility (physchem; solvent 10% PG in water, ambient temperature): 0.013 ± 0.003 g/litre of solvent | Solubility (physchem; solvent 30% PG in water, ambient temperature): 0.177 ± 0.006 g/litre of solvent | Solubility (physchem; solvent 50% PG in water, ambient temperature): 0.218 ± 0.024 g/litre of solvent | Solubility (physchem; solvent 70% PG in water, ambient temperature): 0.19 ± 0.011 g/litre of solvent | Solubility (physchem; solvent 80% EtOH, ambient temperature): 0.13 ± 0.009 g/litre of solvent | Solubility (physchem; solvent 90% PG in water, ambient temperature): 0.118 ± 0.012 g/litre of solvent | Solubility (physchem; solvent 100% H2O, ambient temperature): 0.00 g/litre of solvent | Solubility (physchem; solvent 100% H2O, ambient temperature, listed as He): completely insoluble | Solubility (physchem; solvent 100% PG, ambient temperature): 0.0216 ± 0.002 g/litre of solvent | Solubility (physchem; solvent 100% PG, ambient temperature, listed as Hesperidin): 0.022 ± 0.002 g/litre of solvent | Concentration of natural substance in a saturated solution (physchem; ternary mixture No 1: 64.7% PG, 17.6% CG, 17.7% H2O): 340 ± 30 µg/mL | Concentration of natural substance in a saturated solution (physchem; ternary mixture No 2: 37.5% PG, 31.2% CG, 31.3% H2O): 440 ± 30 µg/mL | Concentration of natural substance in a saturated solution (physchem; ternary mixture No 3: 31.2% PG, 12.5% CG, 56.3% H2O): 460 ± 10 µg/mL | Concentration of natural substance in a saturated solution (physchem; ternary mixture No 4: 32.1% PG, 55.1% CG, 12.8% H2O): 300 ± 30 µg/mL | Concentration of natural substance in a saturated solution (physchem; ternary mixture No 5: 25% PG, 12.5% CG, 62.5% H2O): 400 ± 30 µg/mL | Concentration of natural substance in a saturated solution (physchem; ternary mixture No 6: 16.65% PG, 8.9% CG, 74.45% H2O): 310 ± 10 µg/mL | Concentration relative to 80% ethanol (physchem; ternary mixture No. 3 versus 80% ethanol): 3.6 times

O=C(O)c1cc(O)c(O)c(O)c1 [GA, Gallic acid]
Solubility in 70% PG relative to water (factor) (physchem): ~12.4 times | solubility at 5 min (physchem; [2]): 42000 ± 540 µg/mL (≈ 247 mM) | solubility at 5 min (physchem; 25 °C, water): 10500 ± 1100 µg/mL (≈ 61.7 mM) | Solubility in 100% PG compared to that of 70% PG (physchem; 5 min): 32.3% | Solubilization power relative to 80% ethanol (physchem; 5 min): 58.75% | solubility at 5 min (physchem; [3]): 95100 ± 8120 µg/mL (≈ 559 mM)

O=C(/C=C/c1ccc(O)c(O)c1)O[C@H](Cc1ccc(O)c(O)c1)C(=O)O [RA, Rosmarinic Acid]
Solubilisation power relative to water (physchem): 27.2 times | Solubilisation relative to water (physchem): 26.8 times | solubility at 5 min (physchem; [2]): 12800 ± 1200 µg/mL (≈ 35.5 mM) | solubility at 5 min (physchem; 25 °C, water): 6600 ± 2400 µg/mL (≈ 18.3 mM) | Solubility relative to solubility in 80% ethanol (physchem; 5 min): 92% | solubility at 5 min (physchem; [3]): 302000 ± 9400 µg/mL (≈ 839 mM)

CC1=C(/C=C/C(C)=C/C=C/C(C)=C/C=C/C=C(C)/C=C/C=C(C)/C=C/C2=C(C)CCCC2(C)C)C(C)(C)CCC1 [B-C, β-carotene]
Solubility (physchem): completely insoluble | Amount dissolved compared to hexane (physchem; ternary point 4 versus hexane): three times more

C=C(C)[C@H]1CC=C(C)CC1 [limonene]
Proportion in a self-stabilized ternary mixture [1]: 5%

COc1cc(/C=C/C(=O)CC(=O)/C=C/c2ccc(O)c(OC)c2)ccc1O [CU, Curcumin]
solubility at 5 min (physchem; 25 °C, aqueous with cosolvent or surfactant or cyclodextrin): 1900 ± 45 µg/mL (≈ 5.16 mM) | solubility at 5 min (physchem; [2]): 5850 ± 310 µg/mL (≈ 15.9 mM) | solubility at 5 min (physchem; 25 °C, water): 0.5 µg/mL (≈ 0.00136 mM) | Solubility compared to 80% ethanol (physchem; 5 min): 1.6 fold | solubility at 5 min (physchem; [3]): 3650 ± 220 µg/mL (≈ 9.91 mM) | solubility at 5 min (physchem; organic solvent or mixture): 7900 µg/mL (≈ 21.4 mM)
